According to US20220144853A1, “IMIDAZOLINE DERIVATIVES AS CXCR4 MODULATORS” (Université de Paris, priority 2019, published 2022):
Counter-ions that a name gives are not always drawn.

Tests used:
[1] = system: IL-12p70; assay: Cytokine production by R848-activated PBMCs, LEGENDplex Human Inflammation panel 1: IL-12p70; format: cell-based; details: Homo sapiens, PBMC, PBMCs from 2 healthy donors, R848 overnight
Protocol: (§1) 2) The PBMCs used herein were prepared as described in part A “immune cells preparation”, section 2) above. PBMCs were seeded at 4.10^6/mL. […] Cells were then stimulated with the TLR7/8 agonist resiquimod—R848 (Sigma-Aldrich, MO, USA) at 5 μg/mL.
(§2) Cytokine expression levels were assessed using LEGENDplex Human inflammation panel 1 Kit (BioLegend, California, USA), which is a bead-based multiplex assay, using fluorescence-encoded beads. […] First, supernatants of R848-stimulated PBMCs were harvested after 24 h of stimulation and frozen at −20° C. for storage. Supernatants were dispensed into a 96-well V-bottom plate. Protocol pursued as per manufacturer recommendations (Manual for BioLegend LEGENDplex, Multi-Analyte Flow Assay Kit, Human Inflammation Panel 1, version 750000393_R01).

[2] = system: IFN production by activated immune cells (PBMC); assay: IFN production by R848-activated PBMC from healthy donors, STING-37 reporter cell line; format: cell-based, human; details: different concentrations, R848, STING-37 reporter, FIG. 1
Protocol: 1) The blood from healthy donors was obtained from two sources. Either from “Etablissement Français du Sang” (convention #07/CABANEL/106), Paris, France or from the Apheresis and Blood Donation Unit at the Institute of Transfusion Medicine and Immunogenetics (IKT), Ulm, Germany after being approved by the Institutional Review Board at Ulm University.
In vitro experiments were performed using human peripheral blood mononuclear cells (PBMCs) isolated by density centrifugation from peripheral blood leukocyte separation medium (Cambrex, Gaithersburg, Md.).
PBMCs were cultured in RPMI 1640 (Invitrogen, Gaithersburg, Md.) (R10) containing 10% heat-inactivated fetal bovine serum, 100 U/mL Penicilium and 100 μg/mL Streptomycin (1% Pen-Strep) and 1 mM glutamine (Hyclone, Logan, Utah).
1) The PBMCs used herein were prepared as described in part A “immune cells preparation”, section 1) above. PBMCs were seeded at 2.10^6/mL. […]
1) To quantify the secretion of functional IFN, a biological assay based on a stable cell line where luciferase reporter gene is controlled by five Interferon-Stimulated Response Elements (STING37 cell line) was used. […] After 24 h of culture, luciferase activity was determined by adding 50 μL of Bright-Glo reagents (Promega) to culture wells and measuring bioluminescence with a luminometer.

[3] = molecular target: T1, human CXCR4 (hCXCR4) receptor (Homo sapiens, UniProt P61073); assay: BRET assay of antagonist activity on the CXCR4-CXCL12 signaling pathway in transfected HEK-293 T cells; format: cell-based; details: Gαi1, Gαi2, Gαi3, GαoB or Gαz, EC80 CXCL12, FIG. 6
T1 construct: expressed in transfected cells; host or cells: HEK-293 T cells, transient co-transfection with polyethylenimine
Protocol: Examples of the present invention were tested for their antagonist activity on human CXCR4 (hCXCR4) receptor transiently over-expressed in HEK-293 T cells. Compounds exert antagonist activity if they decrease the action of CXCL12 on the receptor.
HEK-293 T cells are maintained in Dulbecco's Modified Eagle's Medium supplemented with 10% Foetal Calf Serum, 1% Penicillin/Streptomycin at 37° C./5% CO2. […] After transfection, cells are cultured for 48 h at 37° C./5% CO2.
On the day of the assay, cells are detached using trypsin 0.05%, resuspended in assay buffer (1.8 mM CaCl2, 1 mM MgCl2, 2.7 mM KCl, 137 mM NaCl, 0.4 mM NaH2PO4, 5.5 mM D-Glucose, 11.9 mM NaHCO3, 25 mM Hepes) and seeded in 384 well plate at a density of 20,000 cells per well.
Cells are first incubated for 10 minutes with the compound alone. Then, cells are stimulated by an EC80 CXCL12 concentration for additional 10 minutes and luminescence is recorded. […] Antagonist activity is evaluated in comparison to basal signals evoked by EC80 CXCL12 alone.
For IC50 determination, a dose-response test is performed using 20 concentrations (ranging over 6 logs) of each compound. Dose-response curves are fitted using the sigmoidal dose-response (variable slope) analysis in GraphPad Prism software (GraphPad Software) and IC50 of antagonist activity is calculated. […]

[4] = system: IL-1β; assay: Cytokine production by R848-activated PBMCs, LEGENDplex Human Inflammation panel 1: IL-1β; format: cell-based; details: Homo sapiens, PBMC, PBMCs from 2 healthy donors, R848 overnight, read-out: IC50 (μM) 1L-1β
Protocol: as §1, §2

[5] = system: TNFα production by monocytes (CD14+ cells); assay: Requirement of CXCR4 (siRNA knockdown or AMD3100) for the effect on TNFα production by monocytes from healthy donors; format: cell-based, human; details: AMD3100 20 μM 1 h, example 1 5 μM or example 2 1 μM, R848, FIG. 5B
Protocol: Monocytes were purified from PBMCs by positive selection with the CD14 microbeads (Miltenyi Biotec) and MACS column.
1) The PBMCs used herein were prepared as described in part A “immune cells preparation”, section 1) above. PBMCs were seeded at 2.10^6/mL. […] Cells were then stimulated with the TLR7/8 agonist resiquimod—R848 (Invivogen) at 5 μg/mL. When stated, AMD (20 μM) (Sigma-Aldrich, MO, USA) was added to the cells 1 h before incubation with example 1.
Isolated monocytes were seeded at 10^5 cells/100 μL in 96-well plates and incubated at 37° C. Cyclophilin B (control) and CXCR4 small interfering RNA (siRNA) (Smart Pool, Dharmarcon) was diluted in DOTAP (Roche Applied Sciences). The mix was gently mixed and incubated at room temperature for 15 minutes. After incubation, the mix was added to cells in culture at a final concentration of 160 nM. Finally, cells were incubated at 37° C. for 24 hours before stimulation.
R848-stimulated PBMCs were washed in PBS and then incubated with a viability stain (Zombie-Aqua, Biolegend) for 30 min at 4° C. After washing, the cells were resuspended in PBS containing 2% FCS and 2 mM EDTA and stained with the extracellular mix using APC-anti-BDCA4 (clone 12C2), FITC-anti-CD123 (clone 6H6), PerCP.cy5.5-anti-CD56 (clone 5.1H11), BV421-anti-HLADR (clone L243), PE.cy7-anti-CD19 (clone 4G7), APC-cy.7-anti-CD14 (clone M5E2) all from Biolegend and used at 1/200 and V500-anti-CD3 (BD Bioscience, clone SP34-2, 1/200). For the TNFα intracellular staining a Fixation/Permeabilization Solution Kit (BD Cytofix/Cytoperm) was used according to the manufacturer's protocol. Briefly, the cells were fixed for 10 min at 4° C. with 100 μL of the Fixation/Permeabilization solution then washed and stained in 100 μL of the BD Perm/Wash Buffer containing TNFα-APC (Miltenyi, 1/500) antibody for 1 h at 4° C. Data acquisition was performed on a Canto II flow cytometer using Diva software (BD Biosciences, San Jose, Calif.). FlowJo software (Treestar, Ashland, Oreg.) was used to analyze data.

T1 sequence (P61073 whole entry): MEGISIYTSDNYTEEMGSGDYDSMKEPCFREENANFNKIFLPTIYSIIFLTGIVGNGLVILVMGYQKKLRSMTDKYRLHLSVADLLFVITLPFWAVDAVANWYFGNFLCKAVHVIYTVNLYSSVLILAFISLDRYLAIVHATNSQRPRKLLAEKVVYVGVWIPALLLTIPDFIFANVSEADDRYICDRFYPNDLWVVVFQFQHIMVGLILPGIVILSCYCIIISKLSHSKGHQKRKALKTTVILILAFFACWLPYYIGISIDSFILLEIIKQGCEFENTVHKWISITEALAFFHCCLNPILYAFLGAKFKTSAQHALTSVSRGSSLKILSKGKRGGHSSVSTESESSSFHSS

- antagonist activity: recruitment of G proteins induced by the hCXCR4-CXCL12 interaction [3]: significantly lower than IT1t
Compound: CC1(C)CN2C(CSC3=NCC(C)(C)N3)=CSC2=N1 [Example 2, 3-(((5,5-dimethyl-4,5-dihydro-1H-imidazol-2-yl)thio)methyl)-6,6-dimethyl-5,6-dihydroimidazo[2,1-b]thiazole dihydrochloride]
- IC50 [1]: 14 µM
- reduction of IFN production by activated PBMCs [2]: 100%
- IC50 [4]: 32 µM
- TNFα production by activated monocytes in the presence of the example after pre-incubation with AMD3100 [5]: restored
